From patent US20260000672A1, “HISTONE DEACETYLASE INHIBITORS FOR USE IN IMMUNOTHERAPY” (Viracta Subsidiary, Inc., priority 2016, published 2026)

Tests used:
BALB/c splenocytes = experiment: FACS analysis of BALB/c splenocytes after 24 hours with test agents; format: cell-based, mouse; settings: for CD45+ CD3+ CD4+ / CD45+ CD3+ CD4+ CD25+ / CD45+ CD3+ CD4+ FoxP3+ / CD45+ CD3+ CD4+ FoxP3+, CD25+ / CD45+ CD3+ CD4+ FoxP3+, CD25− / CD45+ CD3+ CD4+ FoxP3− CD25+ / CD45± / Live / CD45+ CD3+: 24 hours
Excerpt: FACS analysis consisted of the following markers: live/dead, CD45, CD3, CD4, CD25 and FOXP3.

[1] = system: breast cancer cell line MCF-7; settings: cited from earlier work
mouse fibroblasts = settings: cited from earlier work
[2] = 1 uM, n=5, mean (SD in the line below)

SMILES: Nc1ccccc1NC(=O)c1ccc(CNC(=O)OCc2cccnc2)cc1 [Entinostat, reference compound]
- CD45+ CD3+ CD4+ (BALB/c splenocytes; 1 uM, n=5): 38.5%
- CD45+ CD3+ CD4+ CD25+ (BALB/c splenocytes; 1 uM, n=5): 10.4%
- CD45+ CD3+ CD4+ FoxP3+ (BALB/c splenocytes; 1 uM, n=5): 10.1%
- CD45+ CD3+ CD4+ FoxP3+, CD25+ (BALB/c splenocytes; 1 uM, n=5): 5.12%
- CD45+ CD3+ CD4+ FoxP3+, CD25− (BALB/c splenocytes; 1 uM, n=5): 2.33%
- CD45+ CD3+ CD4+ FoxP3− CD25+ (BALB/c splenocytes; 1 uM, n=5): 4.57%
- CD45± (BALB/c splenocytes; 1 uM, n=5): 99.1%
- Live (BALB/c splenocytes; [2]): 97.6%

SMILES: O=C(NO)c1cnc(N2CC3C(C2)C3NCc2ccc3cc(F)ccc3n2)nc1 (stereo not shown) [VRx-3996, 2-(6-{[(6-Fluoroquinolin-2-yl)methyl]amino}-3-azabicyclo[3.1.0]hex-3-yl)-N-hydroxypyrimidine-5-carboxamide]
- CD45+ CD3+ (BALB/c splenocytes; 1 nM, n=5): 46.9%
- CD45+ CD3+ CD4+ (BALB/c splenocytes; 1 nM, n=5): 32.4%
- CD45+ CD3+ CD4+ CD25+ (BALB/c splenocytes; 1 nM, n=5): 7.93%
- CD45+ CD3+ CD4+ FoxP3+ (BALB/c splenocytes; 1 nM, n=5): 12%
- CD45+ CD3+ CD4+ FoxP3+, CD25+ (BALB/c splenocytes; 1 nM, n=5): 6.2%
- CD45+ CD3+ CD4+ FoxP3+, CD25− (BALB/c splenocytes; 1 nM, n=5): 4.47%
- CD45+ CD3+ CD4+ FoxP3− CD25+ (BALB/c splenocytes; 1 nM, n=5): 1.14%
- CD45± (BALB/c splenocytes; 1 nM, n=5): 98.6%
- Live (BALB/c splenocytes; 1 nM, n=5): 98.4%
- CD45+ CD3+ (BALB/c splenocytes; 100 nM, n=5): 94%
- CD45+ CD3+ CD4+ (BALB/c splenocytes; 100 nM, n=5): 75.3%
- CD45+ CD3+ CD4+ CD25+ (BALB/c splenocytes; 100 nM, n=5): 1.89%
- CD45+ CD3+ CD4+ FoxP3+ (BALB/c splenocytes; 100 nM, n=5): 1.62%
- CD45+ CD3+ CD4+ FoxP3+, CD25+ (BALB/c splenocytes; 100 nM, n=5): 0.064%
- CD45+ CD3+ CD4+ FoxP3+, CD25− (BALB/c splenocytes; 100 nM, n=5): 0.34%
- CD45+ CD3+ CD4+ FoxP3− CD25+ (BALB/c splenocytes; 100 nM, n=5): 1.22%
- CD45± (BALB/c splenocytes; 100 nM, n=5): 99.6%
- Live (BALB/c splenocytes; 100 nM, n=5): 91.4%
- CD45+ CD3+ (BALB/c splenocytes; 500 nM, n=5): 94%
- CD45+ CD3+ CD4+ (BALB/c splenocytes; 500 nM, n=5): 80.6%
- CD45+ CD3+ CD4+ CD25+ (BALB/c splenocytes; 500 nM, n=5): 3.03%
- CD45+ CD3+ CD4+ FoxP3+ (BALB/c splenocytes; 500 nM, n=5): 2.36%
- CD45+ CD3+ CD4+ FoxP3+, CD25+ (BALB/c splenocytes; 500 nM, n=5): 0.22%
- CD45+ CD3+ CD4+ FoxP3+, CD25− (BALB/c splenocytes; 500 nM, n=5): 0.47%
- CD45+ CD3+ CD4+ FoxP3− CD25+ (BALB/c splenocytes; 500 nM, n=5): 1.69%
- CD45± (BALB/c splenocytes; 500 nM, n=5): 99.5%
- Live (BALB/c splenocytes; 500 nM, n=5): 87.2%
- CD45+ CD3+ (BALB/c splenocytes; 1 uM, n=5): 94.7%
- CD45+ CD3+ CD4+ (BALB/c splenocytes; 1 uM, n=5): 82.2%
- CD45+ CD3+ CD4+ CD25+ (BALB/c splenocytes; 1 uM, n=5): 3.57%
- CD45+ CD3+ CD4+ FoxP3+ (BALB/c splenocytes; 1 uM, n=5): 3.85%
- CD45+ CD3+ CD4+ FoxP3+, CD25+ (BALB/c splenocytes; 1 uM, n=5): 0.14%
- CD45+ CD3+ CD4+ FoxP3+, CD25− (BALB/c splenocytes; 1 uM, n=5): 0.8%
- CD45+ CD3+ CD4+ FoxP3− CD25+ (BALB/c splenocytes; 1 uM, n=5): 1.96%
- CD45± (BALB/c splenocytes; 1 uM, n=5): 99.6%
- Live (BALB/c splenocytes; [2]): 84.7%
- reduction in FoxP3, CD25+ T cells (BALB/c splenocytes; compared to entinostat at 1 μM): ~47 fold
- concentration at which the suppressive effect on FoxP3+, CD25+ T cells was seen (BALB/c splenocytes; seen at least as low as): ≤ 100 nM
- effect on CD4+, CD25+, and FoxP3+ regulatory cells (BALB/c splenocytes; striking when compared to entinostat): specifically reduces

SMILES: CCCC(=O)O [butyrate]
- cellular proliferation [1]: induces a block in cellular proliferation
- cell cycle (mouse fibroblasts): block the cell cycle in the G1 phase
